According to EP4786459A1, “BENZENE RING-CONTAINING COMPOUND HAVING ANALGESIC EFFECT, PREPARATION METHOD THEREFOR, AND USE THEREOF” (West China Hospital, Sichuan University, priority 2023, dated 2025):

Key:
rats = test: Loss of tail withdrawal reflex (LOTWR) in rats, single intravenous injection, dose escalation: potent analgesic effect and severe adverse reactions; type: in vivo, SD rats; conditions: Rattus norvegicus, single intravenous injection (tail vein), LOTWR lasting for 30 seconds as criterion, class symbol, read-out: The minimum effective dose
Description: (§1) Using the loss of tail withdrawal reflex (LOTWR) in rats as an indicator, the potent analgesic effect of the compounds according to the present invention was evaluated.
(§2) 1.1 Experimental animals: Adult male SD rats weighing between 220-300 g were selected for the experiment. The rats were housed in sawdust-bedded cages with a temperature of 25±1°C, humidity ranging from 40% to 60%, and a 12-hour light/12-hour dark cycle. Each cage contained no more than 5 rats, with free access to water and food.
(§3) • (1) The compound of the present invention, along with the positive control drug remifentanil and the negative control (vehicle), were administered in fixed volumes. A dose escalation approach was employed to determine the minimum effective dose at which the compound of the present invention produces potent analgesic effects, as well as the minimum dose at which severe adverse reactions first appear. • (2) LOTWR lasting for 30 seconds was used as the criterion for generating potent analgesic effects. During the experiment, drugs were administered via the tail vein of rats, with a dosage volume of 0.6 mL per rat and a dosage rate of 0.02 mL/s. Subsequently, an alligator clip was applied at a distance of 1 cm from the base of the rat's tail, clamping once longitudinally and once transversely before being left in place. Meanwhile, the distal end of the alligator clip was continuously oscillated (30 times/min) to continuously generate stimulation. […] When all results were "no LOTWR" after 10 minutes of testing (5 trials), the test was stopped and recorded as "ineffective." • (3) All compounds would undergo a dose escalation for efficacy evaluation, starting from 1 mg/kg (due to the high potency of remifentanil, the lowest dose was set at 1 µg/kg), followed by 5 mg/kg, 10 mg/kg, 20 mg/kg, and so on (increasing by 20 mg/kg increments after 20 mg/kg). The dose escalation would be stopped when rats show signs of death, and the lowest effective dose and the lowest dose at which severe adverse reactions occur would be recorded throughout the process. In this study, severe adverse reactions are defined as apnea, generalized tonic rigidity, convulsions, opisthotonus, seizures, etc.
(§4) 1.3 Evaluation indicators: the minimum effective dose; the minimum dose resulting in serious adverse reactions; the safety therapeutic index = "the minimum dose resulting in serious adverse reactions" / "the minimum effective dose".

[1] = as above; type: in vivo, SD rats; conditions: rat, in vivo, single intravenous injection, minimum dose resulting in serious adverse reactions / minimum effective dose, class symbol, read-out: The safety therapeutic index
Description: as §1, §2, §3, §4

SMILES	minimal effective dose (rats)	selectivity ratio [1]
CN(C)c1ccccc1NC(=O)Nc1ccns1 [Example 97]	> 30 mg/kg	≤ 2
Cc1ccc(CSC(=S)SCc2cccs2)c(N(C)C)c1 [Example 98]	> 30 mg/kg	≤ 2
Cc1ccc(CSC(=O)OCc2ccsc2)c(N(C)C)c1 [Example 99]	> 30 mg/kg	≤ 2
Cc1ccc(COC(=S)SCc2ccsc2)c(N(C)C)c1 [Example 100]	> 30 mg/kg	≤ 2
Cc1ccc(CSC(=O)SCc2cccs2)c(N(C)C)c1 [Example 101]	> 30 mg/kg	2 to 4
Cc1ccc(CNC(=O)Nc2ncc[nH]2)c(N(C)C)c1 [Example 103]	≤ 10 mg/kg	> 4
Cc1ccc(CNC(=O)Nc2ccn[nH]2)c(N(C)C)c1 [Example 104]	> 30 mg/kg	≤ 2
CN(C)c1cc(CNC(=O)NCc2ccco2)ccc1C(F)(F)F [Example 105]	≤ 10 mg/kg	> 4
Cc1ccc(CNC(=S)Nc2cncs2)c(N(C)C)c1 [Example 106]	≤ 10 mg/kg	> 4
Cc1ccc(CNC(=S)NCc2cc(C)nn2C)c(N(C)C)c1 [Example 107]	10 to 20 mg/kg	2 to 4
Cc1ccc(CNC(=N)NCc2cc(C)nn2C)c(N(C)C)c1 [Example 108]	≤ 10 mg/kg	> 4
Cc1ccc(CNC(=N)NCc2ccnn2C)cc1N(C)C [Example 109]	≤ 10 mg/kg	≤ 2
Cc1cc(CNC(=N)NCc2ccc(C)c(N(C)C)c2)n(C)n1 [Example 110]	≤ 10 mg/kg	≤ 2
Cc1ccc(CNC(=N)NCc2ccnn2C)c(N(C)C)c1 [Example 111]	≤ 10 mg/kg	≤ 2
Cc1ccc(CNC(=O)NCc2ccnn2C)cc1N(C)C [Example 112]	≤ 10 mg/kg	> 4
Cc1cc(CNC(=O)NCc2ccc(C)c(N(C)C)c2)n(C)n1 [Example 113]	10 to 20 mg/kg	> 4
CCCCc1ccc(CNC(=S)Nc2cccs2)c(N(C)C)c1 [Example 114]	≤ 10 mg/kg	2 to 4
Cc1cc(CNC(=S)NCc2ccc(C)c(N(C)C)c2)n(C)n1 [Example 115]	≤ 10 mg/kg	> 4
Cc1ccc(CNC(=S)NCc2ccnn2C)cc1N(C)C [Example 116]	≤ 10 mg/kg	2 to 4
Cc1ccc(CNC(=O)NCc2cc(C)nn2C)c(N(C)C)c1 [Example 117]	> 30 mg/kg	2 to 4
CN(C)c1cc(C(C)(C)C)ccc1CNC(=S)NCc1cccs1 [Example 118]	≤ 10 mg/kg	≤ 2
CN(C)c1cc(C2CC2)ccc1CNC(=S)NCc1cccs1 [Example 119]	≤ 10 mg/kg	≤ 2
CCCCc1ccc(CNC(=O)NCc2ccco2)cc1N(C)C [Example 120]	≤ 10 mg/kg	> 4
Cc1ccc(CSC(=S)OCc2ccsc2)c(N(C)C)c1 [Example 121]	> 30 mg/kg	2 to 4
Cc1ccc(NC(=S)NCc2cccs2)c(N(C)C)c1 [Example 122]	≤ 10 mg/kg	> 4
